Assay results taken from patent publication US20240051985A1, “METTL3 MODULATORS” (ACCENT THERAPEUTICS, INC., priority 2020, published 2024).

Experiments:
[1] = target: METTL3/METTL14 (Homo sapiens, UniProt Q86U44); test: METTL3-14 standard enzyme assay (3H-SAM flashplate); details: Table 3; METTL3 biochemical assay
How it was run: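 Radiometric methyltransferase read-out: after quenching with excess unlabelled SAM (15 μM), biotinylated RNA was captured on streptavidin flashplates (2 h, 25° C) and counted. Reactions contained 2.5 nM enzyme (5 min preincubation), 100 nM RNA and 100 nM 3H-SAM, ran 30 min in HEPES pH 7.5 buffer with KCl, MgCl2, DTT.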

[2] = tested on: m^6A in cellular mRNA of MOLM-13 cells; test: m^6A-mRNA LC-MS/MS assay (m^6A cellular assay); assay type: cell-based; details: Homo sapiens, Table 3, 24 hours
Procedure: 5×10^6 MOLM-13 (DSMZ) cells were seeded into 10 cm dishes in RPMI 1640 media containing 10% fetal bovine serum and placed in a humidified tissue culture incubator at 37° C. overnight. Compounds were resuspended in 100% DMSO and dosed into each dish at a fixed concentration to comprise an 8-point dose response with a 4-fold serial dilution ranging from 25 μM to 1.5 nM in 0.25% DMSO final and allowed to incubate for 24 hours in a humidified tissue culture incubator at 37° C. Cells were harvested by centrifugation followed by mRNA extraction using DIRECT Dynabeads mRNA DIRECT kit (Life Technologies). mRNA was quantified on NanoDrop spectrophotometer (Thermo Fisher Scientific) and digested into single nucleosides using Nucleoside Digestion Mix (New England Biolabs). Nucleosides are quantified with retention time on a BEH C18 column (Waters) and the nucleoside-to-base ion mass transition of 282.1-150.1 (m^6A) and 268-136 (A) on an API 6500+ triple quadrupole mass spectrometer. Quantification is performed in comparison with the standard curve, obtained from pure nucleoside standards (Selleck Chemicals) running with the same batch of samples. Percentage m^6A in cellular mRNA is calculated as 100*(m^6A/A).

[3] = target: PRMT5-MEP50 (Homo sapiens, UniProt O14744); test: PRMT5 assay (3H-SAM flashplate); details: Table 3; PRMT5 biochemical assay
How it was run: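 Radiometric methyl-transfer read-out: 3H-methyl transferred to a 3′-biotinylated, acetylated H4 peptide substrate (100 nM) from 3H-SAM (250 nM), captured on streptavidin scintillation plates. Enzyme complex 2.5 nM, pH 8.0 Tris buffer with DTT and Tween, compound preincubation 5 min, 60 min reaction stopped with excess unlabeled SAM.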

Chain of PRMT5-MEP50 (O14744 whole entry): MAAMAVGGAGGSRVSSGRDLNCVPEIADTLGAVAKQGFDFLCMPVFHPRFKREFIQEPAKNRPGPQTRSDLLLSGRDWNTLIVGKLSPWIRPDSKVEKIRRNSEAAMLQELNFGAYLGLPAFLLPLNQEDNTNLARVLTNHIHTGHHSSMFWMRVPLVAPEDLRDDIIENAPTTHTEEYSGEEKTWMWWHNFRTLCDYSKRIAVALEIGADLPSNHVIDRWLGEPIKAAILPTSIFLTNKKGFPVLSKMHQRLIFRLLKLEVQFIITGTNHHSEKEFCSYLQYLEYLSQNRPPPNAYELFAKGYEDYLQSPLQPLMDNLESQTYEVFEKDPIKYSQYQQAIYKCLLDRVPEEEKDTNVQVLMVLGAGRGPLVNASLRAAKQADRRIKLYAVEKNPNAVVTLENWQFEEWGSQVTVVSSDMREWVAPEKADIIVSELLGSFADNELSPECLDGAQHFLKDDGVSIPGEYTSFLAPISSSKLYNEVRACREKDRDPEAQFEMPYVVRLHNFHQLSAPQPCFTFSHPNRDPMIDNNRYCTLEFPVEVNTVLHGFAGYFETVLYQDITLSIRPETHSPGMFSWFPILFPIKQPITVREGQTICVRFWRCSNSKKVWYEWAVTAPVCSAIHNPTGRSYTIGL
Chain of PRMT5-MEP50 (Q9BQA1 whole entry partner): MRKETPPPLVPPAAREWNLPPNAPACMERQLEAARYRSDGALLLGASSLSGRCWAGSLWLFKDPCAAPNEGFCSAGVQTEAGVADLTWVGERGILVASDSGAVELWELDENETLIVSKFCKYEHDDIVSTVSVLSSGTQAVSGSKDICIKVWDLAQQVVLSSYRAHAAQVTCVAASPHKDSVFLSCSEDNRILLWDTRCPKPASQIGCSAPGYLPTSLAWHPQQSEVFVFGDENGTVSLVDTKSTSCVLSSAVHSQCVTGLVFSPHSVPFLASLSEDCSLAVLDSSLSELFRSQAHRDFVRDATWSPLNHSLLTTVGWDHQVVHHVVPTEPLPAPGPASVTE
Chain of METTL3/METTL14 (Q86U44 whole entry, species assumed): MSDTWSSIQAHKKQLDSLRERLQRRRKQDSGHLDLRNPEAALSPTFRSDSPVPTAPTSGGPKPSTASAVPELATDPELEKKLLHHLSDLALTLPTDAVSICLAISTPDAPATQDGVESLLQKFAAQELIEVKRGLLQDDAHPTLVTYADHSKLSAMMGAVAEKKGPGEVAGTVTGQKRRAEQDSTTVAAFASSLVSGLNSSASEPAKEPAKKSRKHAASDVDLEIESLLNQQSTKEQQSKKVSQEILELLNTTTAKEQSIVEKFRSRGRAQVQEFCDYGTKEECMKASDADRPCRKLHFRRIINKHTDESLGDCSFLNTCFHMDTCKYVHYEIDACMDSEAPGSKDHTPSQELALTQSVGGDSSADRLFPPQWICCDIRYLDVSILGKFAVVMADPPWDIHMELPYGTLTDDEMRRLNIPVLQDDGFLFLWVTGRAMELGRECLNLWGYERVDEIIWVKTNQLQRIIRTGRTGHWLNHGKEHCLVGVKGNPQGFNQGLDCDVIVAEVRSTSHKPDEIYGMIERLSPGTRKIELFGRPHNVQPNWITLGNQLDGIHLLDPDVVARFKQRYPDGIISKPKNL
Chain of METTL3/METTL14 (Q9HCE5 whole entry partner, species assumed): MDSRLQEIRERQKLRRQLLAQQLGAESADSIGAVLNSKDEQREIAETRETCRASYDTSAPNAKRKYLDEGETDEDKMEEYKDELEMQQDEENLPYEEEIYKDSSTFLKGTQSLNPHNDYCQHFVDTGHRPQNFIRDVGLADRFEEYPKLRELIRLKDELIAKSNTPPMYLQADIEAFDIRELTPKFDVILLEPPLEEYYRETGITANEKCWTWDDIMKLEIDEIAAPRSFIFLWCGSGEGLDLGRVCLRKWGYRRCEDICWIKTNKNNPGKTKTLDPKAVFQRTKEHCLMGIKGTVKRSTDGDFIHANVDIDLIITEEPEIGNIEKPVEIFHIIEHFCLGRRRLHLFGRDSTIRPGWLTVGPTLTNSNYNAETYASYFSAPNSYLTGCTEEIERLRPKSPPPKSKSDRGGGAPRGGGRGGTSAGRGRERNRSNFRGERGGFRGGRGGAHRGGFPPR

IC50 [1]	IC50 [2]	IC50 [3]	SMILES
< 10 nM	< 1000 nM	10 to 100 nM	Cn1ccc(-c2cn([C@@H]3O[C@H](C(=O)Nc4ccc5ccc(N6CCC6)nc5c4)[C@@H](O)[C@H]3O)c3ncnc(N)c23)n1 [Compound I-10, (2S,3S,4R,5R)-5-[4-amino-5-(1-methyl-1H-pyrazol-3-yl)-7H-pyrrolo[2,3-d]pyrimidin-7-yl]-N-[2-(azetidin-1-yl)quinolin-7-yl]-3,4-dihydroxyoxolane-2-carboxamide]
< 10 nM	< 1000 nM	< 10 nM	CNc1ccc2ccc(NC(=O)[C@H]3O[C@@H](n4cc(-c5ccn(C)n5)c5c(N)ncnc54)[C@H](O)[C@@H]3O)cc2n1 [Compound I-32, (2S,3S,4R,5R)-5-[4-amino-5-(1-methyl-1H-pyrazol-3-yl)-7H-pyrrolo[2,3-d]pyrimidin-7-yl]-3,4-dihydroxy-N-[2-(methylamino)quinolin-7-yl]oxolane-2-carboxamide]
